Data on one compound can be found in article PMC11617484, “A Small Molecule Agonist of Krüppel-Like Factor 15 in Proteinuric Kidney Disease” (Journal of the American Society of Nephrology : JASN, 2024).

In the experiment the target is T1, inhibitor of nuclear factor kappa-B kinase subunit beta (IKKβ) (Homo sapiens, UniProt O14920).
T1 construct: gene IKBKB
T1 sequence (O14920 1-756): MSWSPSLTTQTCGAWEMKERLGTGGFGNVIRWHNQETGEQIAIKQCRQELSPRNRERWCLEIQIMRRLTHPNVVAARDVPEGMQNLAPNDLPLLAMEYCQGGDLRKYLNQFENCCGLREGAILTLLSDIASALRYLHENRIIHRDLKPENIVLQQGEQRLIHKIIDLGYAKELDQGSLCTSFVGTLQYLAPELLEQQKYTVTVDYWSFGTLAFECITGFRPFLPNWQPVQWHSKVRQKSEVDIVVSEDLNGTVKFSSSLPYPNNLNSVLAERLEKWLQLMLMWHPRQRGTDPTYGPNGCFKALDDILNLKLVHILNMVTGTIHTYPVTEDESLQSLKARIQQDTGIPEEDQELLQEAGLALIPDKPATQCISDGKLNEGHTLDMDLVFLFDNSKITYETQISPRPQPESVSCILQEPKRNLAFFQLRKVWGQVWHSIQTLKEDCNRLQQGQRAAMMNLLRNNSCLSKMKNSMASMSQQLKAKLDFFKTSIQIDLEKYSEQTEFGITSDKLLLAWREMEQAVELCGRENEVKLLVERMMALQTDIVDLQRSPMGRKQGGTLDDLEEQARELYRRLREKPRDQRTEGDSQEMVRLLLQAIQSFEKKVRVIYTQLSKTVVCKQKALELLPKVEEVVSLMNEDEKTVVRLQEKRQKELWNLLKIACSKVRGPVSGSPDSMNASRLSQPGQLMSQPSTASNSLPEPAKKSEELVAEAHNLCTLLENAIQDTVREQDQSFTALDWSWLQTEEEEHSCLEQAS
Put plainly: IKKβ kinase activity assay (dose response, ATP dependence, M96V gatekeeper resistance); supported by cellular thermal shift assay in human podocytes. The experiment is classed as biochemical.

Turning to `CSc1ccc(NC(=O)Nc2ccc(C)nc2)cc1` [BT503], the half-inhibitory concentration (IC50) (usually the concentration at which inhibition is half-maximal) was 163 nM.
